Data published in patent US20190059375A1, “SYNERGISTIC FUNGICIDAL COMPOSITION FOR CONTROLLING PLANT DISEASES” (Sumitomo Chemical Company, Limited, priority 2016, published 2019).

Assays:
[1] = system: Brown rust (Puccinia recondita); test: Test Example 4: foliar spray on wheat, Brown rust lesion area; format: in vivo, Puccinia recondita on wheat (cultivar. Shirogane); conditions: single use, foliar spray one day before inoculation, lesion area after ten days
Procedure: Five (5) parts of the present compound 1, 35 parts of a mixture of white carbon and ammonium polyoxyethylene alkyl ether sulfate (the weight ratio of 1:1) and […] of water were mixed, and the mixture was then finely-ground by a wet grinding method to obtain a flowable comprising the present compound 1. Separately, the flowable comprising the present compound 2 was prepared according to the above-mentioned similar method except that the present compound 2 was used instead of the present compound 1.
Each of the flowable comprising the present compound 1 and the flowable comprising the present compound 2 was diluted with water and if necessary, the resultant dilute solutions were mixed each other such that each concentration of the respective compounds in the dilution solution was adjusted to the concentration indicated in Table 3, to prepare the dilution solutions, respectively.
A plastic pot was filled with soil, and thereto wheat (cultivar. Shirogane) was seeded, and the plants were grown in a greenhouse for ten days. The above-mentioned dilution solutions were sprayed to foliar parts so as to adhere adequately onto the surfaces of leaves of the above wheats. After spraying the dilute solution, the plants were air-dried, and one day after the application, an aqueous suspension of uredospores of Brown rust (Puccinia recondita) was inoculated by spraying thereto. After the inoculation, the plants were placed at 27° C. under humid condition for one day, and were then cultivated under lighting for ten days, and a lesion area was examined (hereinafter referred to as “lesion area of treated group”).
Whereas, wheats were cultivated similarly to the treated group except that no foliage application of the above-mentioned agent solution was done, and Brown rust were inoculated, and the lesion area thereof was examined (hereinafter referred to as “lesion area of the untreated group”).
From each of the lesion area of the treated group and the untreated group, respectively, the efficacy of the treated group was calculated by the following Equation 2. […]

[2] = system: Septoria leaf blotch (Mycosphaerella graminicola); test: Test Example 3: growth of Septoria leaf blotch in YBG medium, microtiter plate, absorbance at 550 nm; format: cell-based; conditions: single use, concentration in medium 0.005 ppm; 18° C., four days
Procedure: Each of the present compound 1 or the present compound 2 was dissolved into dimethyl sulfoxide such that each concentration of these compounds was adjusted to one hundred fifty times as much as the concentration indicated in the below-mentioned Table 2. The resultant agent solution was dispensed into each microtiter plate (with 96 wells) in 1 μl portion thereof per well. […] The plate was cultivated at 18° C. for four days, thereby allowing Septoria leaf blotch (Mycosphaerella graminicola) to undergo proliferation, and the absorbance at 550 nm of each well of the microtiter plate was then measured to examine a degree of growth of Septoria leaf blotch (hereinafter referred to as “treated group”).
Whereas, Septoria leaf blotch was proliferated similarly to the case of the treated group except that dimethyl sulfoxide was used instead of the agent solution, and the degree of the growth was examined (hereinafter referred to as “untreated group”). The efficacy was calculated from each of the obtained degree of growth of the treated group and the untreated group respectively by the following “Equation 1”. […]

Structure (SMILES) | Efficacy (%) ([1]; concentration in agent solution 0.001 ppm) | Efficacy (%) ([1]; concentration in agent solution 0.0001 ppm) | Efficacy (%) ([1]; concentration in agent solution 0.01 ppm) | Efficacy (%) [2] [%]
CC1CC(C)(C)c2c(F)ccc(NC(=O)c3cn(C)nc3C(F)F)c21 (stereo not shown) [Present compound 2] | 15 | – | – | –
CNC(=O)C(OC)c1ccccc1COc1cc(C)ccc1C (stereo not shown) [Present compound 1] | – | 22 | 46 | 20
